Structures are written as SMILES. Read-outs that look alike come from different tables or passages of the source.

One may read the IC50 as the point on the concentration scale where inhibition reaches its midpoint. Read a low IC50 as greater potency.

Holding throughout (type): cell-based
The subject of experiment [1] is Calu-6. The experiment in a line: Cancer cell proliferation, Alamar Blue assay 72 hours, Calu-6. Conditions: Homo sapiens. How it is done: (§1) The ability of the compounds described herein to kill or inhibit the proliferation of cancer cells was measured using either the MTT assay, the Alamar Blue assay, or the Cell Titer Glow® assay using 48 or 72 hours exposure. […] The procedures are briefly described below. Cells of the desired tumor cell line were plated at 2×10^5 cells/ml in 96 well plates. Twice the indicated concentrations of the compounds of the invention were added to cells the following day in an equal volume of media. 72 hours later, cells were lysed and subjected to ATP determination using the CellTiter Glo-Luminescent Cell Viability Assay kit (Promega, Madison, Wis.). Experiments were done in triplicate. When using the MTT assay or the Alamar blue assay, the experimental conditions are essentially similar; at the end of the incubation period, 20 microl of the MTT solution is added per well and the samples are incubated for an additional four hours, rinsed and the absorbance at 570 nm measured. Results for the inhibition of cells proliferation are reported as IC50 as commonly done (the concentration leading to a 50% inhibition of proliferation of the cell population) and are listed in the Tables below. Table 4 lists the IC50 for the compounds of the invention in several cell lines including Jurkat, Calu-6, NCI-H82, U937, or NCI-H1437 cancer cell lines. Table 5 lists the IC50 of PFK-070 in a panel of 10 cell lines.
For orientation: The colour change of resazurin is a common sign of viable cells or microbes.

The subject of experiment [2] is Jurkat. The experiment can be described thus: Cancer cell proliferation, Alamar Blue assay 72 hours, Jurkat. The protocol: as §1
The subject of experiment [3] is U937. The experiment in a line: Cancer cell proliferation, Alamar Blue assay 72 hours, U937. The note with it: Homo sapiens, U-937. The protocol:
as §1

The test system of experiment [4] is NCI-H82. The experiment in a line: Cancer cell proliferation, Alamar Blue assay 72 hours, NCI-H82. The note with it: Homo sapiens. How it is done:
as §1

For the compound `O=C(/C=C/c1ccc2cccc(O)c2n1)c1cccnc1` [ACT-PFK-067, 3-(8-Hydroxy-quinolin-2-yl)-1-pyridin-3-yl-propenone], the IC50 in experiment [1] came out at 2.4 µM; in experiment [2] (Homo sapiens, Jurkat, 72 h), 3.1 µM; in experiment [3], 830 nM.

The compound `O=C(/C=C/c1ccc2ccccc2n1)c1cccnc1` [ACT-PFK-035, 1-Pyridin-3-yl-3-quinolin-2-yl-propenone] displayed a half-maximal inhibitory concentration (IC50) in experiment [2] (Homo sapiens, Jurkat, 72 h) of 2.5 µM.

For `O=C(/C=C/c1ccc2ccccc2n1)c1ccccc1O` [ACT-PFK-086, 1-(2-Hydroxy-phenyl)-3-quinolin-2-yl-propenone], the IC50 in experiment [1] is over 100 µM; in experiment [4], 22.5 µM; in experiment [2] (Homo sapiens, Jurkat, 72 h) it was 80.5 µM; in experiment [3] it was 19300 nM.

With `Nc1ccc(C(=O)/C=C/c2ccc3ccccc3n2)cc1` [ACT-PFK-089, 1-(4-Amino-phenyl)-3-quinolin-2-yl-propenone], the IC50 in experiment [1] was found to be 2.1 µM; in experiment [4] it was 0.9 µM; in experiment [2] (Homo sapiens, Jurkat, 72 h), 4.2 µM; in experiment [3], 1600 nM.

For the compound `O=C(/C=C/c1cc(O)c2ccccc2n1)c1ccncc1` [ACT-PFK-066, 3-(4-Hydroxy-quinolin-2-yl)-1-pyridin-4-yl-propenone], the IC50 is 3.8 µM in experiment [1]; 2.4 µM in experiment [2] (Homo sapiens, Jurkat, 72 h); 1300 nM in experiment [3].

Take `Cc1ccc(C(=O)/C=C/c2ccc3cccc(O)c3n2)cc1` [ACT-PFK-071, 3-(8-Hydroxy-quinolin-2-yl)-1-p-tolyl-propenone]: the IC50 in experiment [1] amounted to 5 µM; in experiment [2] (Homo sapiens, Jurkat, 72 h) it was 4.8 µM; in experiment [3], 1900 nM.

For the compound `Nc1ccccc1C(=O)/C=C/c1ccc2ccccc2n1` [ACT-PFK-088, 1-(2-Amino-phenyl)-3-quinolin-2-yl-propenone], the IC50 was over 100 µM in experiment [1]; 38.5 µM in experiment [4]; over 100 µM in experiment [2] (Homo sapiens, Jurkat, 72 h); 17200 nM in experiment [3].

Take `O=C(/C=C/c1cnc2ccccc2c1)c1ccncc1` [ACT-PFK-014, 1-Pyridin-4-yl-3-quinolin-3-yl-propenone]: the midpoint of inhibition in experiment [2], the IC50, lay at 4 µM.

Take `O=C(/C=C/c1ccnc2ccccc12)c1ccncc1` [ACT-PFK-013, 1-Pyridin-4-yl-3-quinolin-4-yl-propenone]: the half-inhibitory concentration (IC50) in experiment [2] (Homo sapiens, Jurkat, 72 h) is 1 µM.

Turning to `O=C(/C=C/c1cccc2cccnc12)c1ccncc1` [ACT-PFK-047, 1-Pyridin-4-yl-3-quinolin-8-yl-propenone], the IC50 in experiment [2] (Homo sapiens, Jurkat, 72 h) was determined as 14 µM.

The compound `O=C(/C=C/c1ccnc2ccccc12)c1cccnc1` [ACT-PFK-036, 1-Pyridin-3-yl-3-quinolin-4-yl-propenone] came in with an IC50 in experiment [2] (Homo sapiens, Jurkat, 72 h) of 2.5 µM.

Take `Cc1ccc(C(=O)/C=C/c2ccc3ccccc3n2)cc1` [ACT-PFK-068, 3-Quinolin-2-yl-1-p-tolyl-propenone]: the IC50 in experiment [1] was 4.8 µM; in experiment [2] (Homo sapiens, Jurkat, 72 h) it was 5.5 µM; in experiment [3], 1600 nM.

In the case of `O=C(/C=C/c1cccc2ncccc12)c1ccncc1` [ACT-PFK-038, 1-Pyridin-4-yl-3-quinolin-5-yl-propenone], in experiment [2] (Homo sapiens, Jurkat, 72 h), the IC50 came out at 1 µM.

For `O=C(/C=C/c1ccc2cccnc2c1)c1cccnc1` [ACT-PFK-037, 1-Pyridin-3-yl-3-quinolin-7-yl-propenone], in experiment [2] (Homo sapiens, Jurkat, 72 h), the IC50 is 2.5 µM.

In experiment [2], `O=C(/C=C/c1cnc2ccccc2c1)c1ccncc1` [ACT-PFK-055, 1-Pyridin-4-yl-3-quinolin-3-yl-propenone] yielded an IC50 of over 100 µM.

`O=C(/C=C/c1cccc2ncccc12)c1cccnc1` [ACT-PFK-039, 1-Pyridin-3-yl-3-quinolin-5-yl-propenone] came in with an IC50 in experiment [2] (Homo sapiens, Jurkat, 72 h) of 1 µM.

With `O=C(/C=C/c1cnc2ccccc2c1)c1cccnc1` [ACT-PFK-048, 1-Pyridin-3-yl-3-quinolin-3-yl-propenone], inhibition in experiment [2] (Homo sapiens, Jurkat, 72 h) was half-maximal at 17 µM (IC50).

On to `Cc1ccc(C(=O)/C=C/c2cc(O)c3ccccc3n2)cc1` [ACT-PFK-073, 3-(4-Hydroxy-quinolin-2-yl)-1-p-tolyl-propenone], for which the IC50 came to 0.8 µM in experiment [1]; 0.6 µM in experiment [2] (Homo sapiens, Jurkat, 72 h); 200 nM in experiment [3].

(Values after patent publication US8557823B2, “Family of PFKFB3 inhibitors with anti-neoplastic activities” (Advanced Cancer Therapeutics, LLC, priority 2007, dated 2013).)
